From US20260258032A1, “TYROSINE KINASE 2 INHIBITORS AND USES THEREOF” (BIOGEN MA INC., priority 2022, published 2026)
Counter-ions that a name gives are not always drawn.

Key:
JH2 domain of human Tyk2 = target: T1, JH2 domain of human Tyk2 (Homo sapiens, UniProt P29597); assay: JH2 biochemical assay (TR-FRET probe displacement); type: binding
T1 construct: 10×His-tagged TYK2 JH2 domain (amino acid 575-876)
Outline: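 10×His-tagged human TYK2 JH2 (aa 575-876, 2 nM) incubated 60 min with 2 nM fluorescent probe, 0.1 nM Tb anti-His antibody and compound (10-point 3-fold series from […] top). TR-FRET 520/495 nm ratio, falling with probe displacement, normalized and fitted to a 4-parameter logistic for IC50.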

[1] = tested on: Tyk2 kinase activity on STAT4; assay: pSTAT4 cell assay (MSD, NK92 cells); type: cell-based; conditions: compounds 1 hr
Outline: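 IC50 values derive from 4-parameter logistic fits of normalized percent activity against log compound concentration. Phospho-STAT was measured by MSD with anti-STAT4 antibodies after 15 min of 30 ng/mL IL2 in serum-starved NK92 cells pretreated 1 hr with compound.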

[2] = tested on: JAK2 kinase activity on STAT5; assay: pSTAT5 cell assay (MSD, TF1 cells, IL-3 stimulated); type: cell-based; conditions: Homo sapiens, TF-1, compounds 1 hour, 30 ng/mL IL-3 for 15 minutes
Procedure: Compounds of the disclosure were assessed for their ability to inhibit the JAK2 kinase activity on STAT5 utilizing an MSD-platform plate-based assay format. TF1 cells natively expressing STAT5 and JAK2 were serum-starved to reduce background phosphorylation levels, then cells were treated with compounds of disclosure for 1 hour with a 10-point four-fold dilution series starting at 10 μM. Cells were then stimulated with 30 ng/mL IL-3 for 15 minutes. Cells were then lysed and pSTAT5 levels were quantitated using an MSD plate-based assay with anti-STAT5 antibodies. The data were normalized and the percent activity versus log concentration of compound was fitted with a 4-parameter logistic model to generate a curve and an IC50 value.

[3] = tested on: JAK1 kinase activity on STAT3; assay: pSTAT3 cell assay (MSD, TF1 cells, IL-6 stimulated); type: cell-based; conditions: Homo sapiens, TF-1, compounds 1 hour, 30 ng/mL IL-6 for 15 minutes
Procedure: The inhibitory potency of compounds of the disclosure against the JAK1 kinase activity on STAT3 was evaluated using an MSD-platform plate-based assay format. TF1 cells natively expressing STAT3 and JAK1 were serum-starved to reduce background phosphorylation levels, then cells were treated with compounds of the disclosure for 1 hour with a 10-point four-fold dilution series starting at 10 μM. Cells were then stimulated with 30 ng/mL interleukin 6 (IL-6) for 15 minutes. Cells were lysed and pSTAT3 levels were quantitated using an MSD plate-based assay with anti-STAT3 antibodies. The data were normalized and the percent activity versus log concentration of compound was fitted with a 4-parameter logistic model to generate IC50 curves.

T1 sequence (P29597 575-876): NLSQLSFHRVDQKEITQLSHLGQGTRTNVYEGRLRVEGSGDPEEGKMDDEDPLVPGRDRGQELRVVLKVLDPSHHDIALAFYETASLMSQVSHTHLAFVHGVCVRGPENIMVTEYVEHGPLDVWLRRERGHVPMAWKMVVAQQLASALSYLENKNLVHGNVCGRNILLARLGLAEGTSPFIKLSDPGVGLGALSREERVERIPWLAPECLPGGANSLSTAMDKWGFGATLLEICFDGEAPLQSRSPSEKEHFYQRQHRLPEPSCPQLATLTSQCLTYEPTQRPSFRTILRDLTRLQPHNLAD

| SMILES | IC50 (JH2 domain of human Tyk2; JH2 biochemical assay) | IC50 ([1]; stimulated 15 minutes) | IC50 [2] | IC50 [3] | IC50 (JH2 domain of human Tyk2; TR-FRET probe displacement, JH2 domain of human Tyk2) | IC50 ([1]; then stimulated 15 minutes) |
| --- | --- | --- | --- | --- | --- | --- |
| CC(=O)Nc1cc2c(cn1)C1(CC1C)CN2c1ccnc(C(C)(F)F)n1 (stereo not drawn) [Example 37, N-(1′-(2-(1,1-difluoroethyl)pyrimidin-4-yl)-2-methyl-1′,2′-dihydrospiro[cyclopropane-1,3′-pyrrolo[3,2-c]pyridin]-6′-yl)acetamide] | 10 to 100 nM | ≥ 1000 nM | ≥ 1000 nM | ≥ 1000 nM |  |  |
| CC(=O)Nc1cc2c(cn1)C1(CC1)CN2c1cccc(C2CCOC2)n1 (stereo not drawn) [Example 16, N-(1′-(6-(tetrahydrofuran-3-yl)pyridin-2-yl)-1′,2′-dihydrospiro[cyclopropane-1,3′-pyrrolo[3,2-c]pyridin]-6′-yl)acetamide] | ≤ 10 nM | 10 to 100 nM | ≥ 1000 nM | ≥ 1000 nM |  |  |
| CC(=O)Nc1cc2c(cn1)C1(CCC1)CN2c1cccc(C(C)(F)F)n1 [Example 42, N-(1′-(6-(1,1-difluoroethyl)pyridin-2-yl)-1′,2′-dihydrospiro[cyclobutane-1,3′-pyrrolo[3,2-c]pyridin]-6′-yl)acetamide] | 10 to 100 nM | ≥ 1000 nM | ≥ 1000 nM | ≥ 1000 nM |  |  |
| CC(=O)Nc1cc2c(cn1)C1(CC1)CN2c1cc(C)nc(C(C)(F)F)n1 [Example 88, N-(1′-(2-(1,1-difluoroethyl)-6-methylpyrimidin-4-yl)-1′,2′-dihydrospiro[cyclopropane-1,3′-pyrrolo[3,2-c]pyridin]-6′-yl)acetamide] | ≤ 10 nM | 10 to 100 nM | ≥ 1000 nM | ≥ 1000 nM |  |  |
| COC1(c2cccc(N3CC4(CC4)c4cnc(NC(C)=O)cc43)n2)COC1 [Example 87, N-(1′-(6-(3-methoxyoxetan-3-yl)pyridin-2-yl)-1′,2′-dihydrospiro[cyclopropane-1,3′-pyrrolo[3,2-c]pyridin]-6′-yl)acetamide] | 10 to 100 nM | ≥ 1000 nM | ≥ 1000 nM | ≥ 1000 nM |  |  |
| CC(=O)Nc1cc2c(cn1)C(C)(C)CN2c1nccc(C(C)(F)F)n1 [Example 39, N-(1-(4-(1,1-difluoroethyl)pyrimidin-2-yl)-3,3-dimethyl-2,3-dihydro-1H-pyrrolo[3,2-c]pyridin-6-yl)acetamide] | ≥ 1000 nM | ≥ 1000 nM | ≥ 1000 nM | ≥ 1000 nM |  |  |
| CC(=O)Nc1cc2c(cn1)C1(CC1)CN2c1cc(-c2cnn(C(C)C)c2)nc(C(C)(F)F)n1 [Example 386, N-(1′-(2-(1,1-difluoroethyl)-6-(1-isopropyl-1H-pyrazol-4-yl)pyrimidin-4-yl)-1′,2′-dihydrospiro[cyclopropane-1,3′-pyrrolo[3,2-c]pyridin]-6′-yl)acetamide trifluoroacetate] |  |  | ≥ 1000 nM | ≥ 1000 nM | ≤ 10 nM | ≤ 10 nM |
| CC(=O)Nc1cc2c(cn1)CCN2c1cccc(C(C)(F)F)n1 [Example 32, N-(1-(6-(1,1-difluoroethyl)pyridin-2-yl)-2,3-dihydro-1H-pyrrolo[3,2-c]pyridin-6-yl)acetamide] | 10 to 100 nM | ≥ 1000 nM | ≥ 1000 nM | ≥ 1000 nM |  |  |
| CC(=O)Nc1cc2c(cn1)C(C)(C)CN2c1ccnc(C(C)(F)F)n1 [Example 38, N-(1-(2-(1,1-difluoroethyl)pyrimidin-4-yl)-3,3-dimethyl-2,3-dihydro-1H-pyrrolo[3,2-c]pyridin-6-yl)acetamide] | ≥ 1000 nM | ≥ 1000 nM | ≥ 1000 nM | ≥ 1000 nM |  |  |
| CC(=O)Nc1cc2c(cn1)C1(CC1)CN2c1nc(C)cc(C(C)(F)F)n1 [Example 83, N-(1′-(4-(1,1-difluoroethyl)-6-methylpyrimidin-2-yl)-1′,2′-dihydrospiro[cyclopropane-1,3′-pyrrolo[3,2-c]pyridin]-6′-yl)acetamide] | ≤ 10 nM | 100 to 1000 nM | ≥ 1000 nM | ≥ 1000 nM |  |  |
| CC(=O)Nc1cc2c(cn1)C1(CC1)CN2c1cccc(C2(O)CCOC2)n1 (stereo not drawn) [Example 19, N-(1′-(6-(3-hydroxytetrahydrofuran-3-yl)pyridin-2-yl)-1′,2′-dihydrospiro[cyclopropane-1,3′-pyrrolo[3,2-c]pyridin]-6′-yl)acetamide] | ≤ 10 nM | 10 to 100 nM | ≥ 1000 nM | ≥ 1000 nM |  |  |
| CC(=O)Nc1cc2c(cn1)C1(CC1)CN2c1cc(-c2cnn(C)c2)nc(C(C)(F)F)n1 [Example 238, N-(1′-(2-(1,1-difluoroethyl)-6-(1-methyl-1H-pyrazol-4-yl)pyrimidin-4-yl)-1′,2′-dihydrospiro[cyclopropane-1,3′-pyrrolo[3,2-c]pyridin]-6′-yl)acetamide] | ≤ 10 nM | ≤ 10 nM | ≥ 1000 nM | ≥ 1000 nM |  |  |
| CCc1cc(N2CC3(CC3)c3cnc(NC(C)=O)cc32)nc(C(C)(F)F)n1 [Example 11, N-(1′-(2-(1,1-difluoroethyl)-6-ethylpyrimidin-4-yl)-1′,2′-dihydrospiro[cyclopropane-1,3′-pyrrolo[3,2-c]pyridin]-6′-yl)acetamide] | ≤ 10 nM | 10 to 100 nM | ≥ 1000 nM | ≥ 1000 nM |  |  |
| CC(=O)Nc1cc2c(cn1)C1(CC1)CN2c1ccnc(C(C)(F)F)n1 [Example 13, N-(1′-(2-(1,1-difluoroethyl)pyrimidin-4-yl)-1′,2′-dihydrospiro[cyclopropane-1,3′-pyrrolo[3,2-c]pyridin]-6′-yl)acetamide] | 10 to 100 nM | 100 to 1000 nM | ≥ 1000 nM | ≥ 1000 nM |  |  |
| CCC(=O)Nc1cc2c(cn1)C1(CC1)CN2c1cccc(C(C)(F)F)n1 [Example 90, N-(1′-(6-(1,1-difluoroethyl)pyridin-2-yl)-1′,2′-dihydrospiro[cyclopropane-1,3′-pyrrolo[3,2-c]pyridin]-6′-yl)propionamide] | ≤ 10 nM | 10 to 100 nM | ≥ 1000 nM | ≥ 1000 nM |  |  |
